Values of other authors, collected in PubChem BioAssay AID1259409 (Chemical Carcinogenesis Research Information System (CCRIS), 2018).
“And” between values parts separate entries of the source, which are not always exact repeats. Equal entries are not always repeated.

Test system: rodent chemically induced tumor inhibition, incidence and multiplicity
Assay: CCRIS tumor inhibitor studies
Settings: for tumour outcome (control, treated, inhibition, significance): Carcinogen: 7,12-DIMETHYLBENZ[A]ANTHRACENE, 57-97-6

COc1ccc2c(c1)c(CC(=O)O)c(C)n2C(=O)c1ccc(Cl)cc1
outcome (Carcinogen: 4-HYDROXYBUTYL(BUTYL)NITROSAMINE [3817-11-6], Dose [Inhibitor]: 20 MG/KG IN DIET 1 WK BEFORE CARCINOGEN (STUDY DURATION: 32 WK), Route [Inhibitor]: DIET, Species: MOUSE, Strain/Sex: B6D2F1/MALE, Target Tissue: Type of Lesion: BLADDER: CARCINOMA, Dose [Carcinogen]: 7.5 MG/WK FOR 12 WK): 32, 3, 91%
outcome (Carcinogen: 4-HYDROXYBUTYL(BUTYL)NITROSAMINE [3817-11-6], Dose [Inhibitor]: 20 MG/KG IN DIET 20 WK AFTER LAST CARCINOGEN DOSE (STUDY DURATION: 61 WK), Route [Inhibitor]: DIET, Species: MOUSE, Strain/Sex: B6D2F1/MALE, Target Tissue: Type of Lesion: BLADDER: CARCINOMA, Dose [Carcinogen]: 7.5 MG/WK FOR 12 WK): 66, 42, 36%
outcome (Carcinogen: 4-HYDROXYBUTYL(BUTYL)NITROSAMINE [3817-11-6], Dose [Inhibitor]: 20 MG/KG IN DIET FOR 30 WK AT 1 WK AFTER LAST CARCINOGEN TREATMENT (STUDY DURATION: 42 WK), Route [Inhibitor]: DIET, Species: MOUSE, Strain/Sex: B6D2F1/MALE, Target Tissue: Type of Lesion: BLADDER: CARCINOMA, Dose [Carcinogen]: 7.5 MG/WK FOR 12 WK): 31, 7, 77%
tumour outcome (control, treated, inhibition, significance) (Dose [Inhibitor]: 0, 0.004% IN 20% FAT DIET CONTAINING 0.5% LINOLEIC ACID BEGINNING 7 D POST CARCINOGEN DOSE AND CONTINUING FOR DURATION O, Route [Inhibitor]: ORAL, Species: RAT, Strain/Sex: SPRAGUE-DAWLEY/FEMALE, Target Tissue: Type of Lesion: MAMMARY GLAND: ADENOCARCINOMA, Dose [Carcinogen]: 5 MG AT 50-53 DAYS OF AGE, Promoter: NONE USED): 56%, 62%, -11%, not calculated
tumour outcome (control, treated, inhibition, significance) (Dose [Inhibitor]: 0, 0.004% IN 20% FAT DIET CONTAINING 4% LINOLEIC ACID BEGINNING 7 D POST CARCINOGEN DOSE AND CONTINUING FOR DURATION OF, Route [Inhibitor]: ORAL, Species: RAT, Strain/Sex: SPRAGUE-DAWLEY/FEMALE, Target Tissue: Type of Lesion: MAMMARY GLAND: ADENOCARCINOMA, Dose [Carcinogen]: 5 MG AT 50-53 DAYS OF AGE, Promoter: NONE USED): 53%, 39%, 26%, not calculated
tumour outcome (control, treated, inhibition, significance) (Dose [Inhibitor]: 0, 0.004% IN 20% FAT DIET CONTAINING 12% LINOLEIC ACID BEGINNING 7 D POST CARCINOGEN DOSE AND CONTINUING FOR DURATION OF, Route [Inhibitor]: ORAL, Species: RAT, Strain/Sex: SPRAGUE-DAWLEY/FEMALE, Target Tissue: Type of Lesion: MAMMARY GLAND: ADENOCARCINOMA, Dose [Carcinogen]: 5 MG AT 50-53 DAYS OF AGE, Promoter: NONE USED): 69%, 50%, 28%, not calculated
tumour outcome (control, treated, inhibition, significance) (Dose [Inhibitor]: 0, 0.005% IN HIGH-FAT (20% CORN OIL) DIET BEGINNING 7 D POST CARCINOGEN DOSE (STUDY DURATION: 20 WK), Route [Inhibitor]: ORAL, Species: RAT, Strain/Sex: SPRAGUE-DAWLEY/FEMALE, Target Tissue: Type of Lesion: MAMMARY GLAND: ADENOCARCINOMA, Dose [Carcinogen]: 5 MG ONCE, Promoter: NONE USED): 26/32 (81%), 10/33 (30%), 63%, not calculated
tumour outcome (control, treated, inhibition, significance) (Dose [Inhibitor]: 0, 0.005% IN HIGH-FAT DIET BEGINNING 7 D POST CARCINOGEN TREATMENT (STUDY DURATION: 48 WK), Route [Inhibitor]: ORAL, Species: RAT, Strain/Sex: SPRAGUE-DAWLEY/FEMALE, Target Tissue: Type of Lesion: MAMMARY GLAND: ADENOCARCINOMA, Dose [Carcinogen]: 5 MG ONCE AT 50 D OF AGE, Promoter: NONE USED): 93%, 47%, 49%, p<0.01
tumour outcome (control, treated, inhibition, significance) (Dose [Inhibitor]: 0, 0.005% IN LOW-FAT (0.5% CORN OIL) DIET BEGINNING 7 D POST CARCINOGEN DOSE (STUDY DURATION: 20 WK), Route [Inhibitor]: ORAL, Species: RAT, Strain/Sex: SPRAGUE-DAWLEY/FEMALE, Target Tissue: Type of Lesion: MAMMARY GLAND: ADENOCARCINOMA, Dose [Carcinogen]: 5 MG ONCE, Promoter: NONE USED): 9/33 (27%), 11/32 (34%), -26%, not calculated
tumour outcome (control, treated, inhibition, significance) (Dose [Inhibitor]: 0, 0.005% IN LOW-FAT DIET BEGINNING 7 D POST CARCINOGEN TREATMENT (STUDY DURATION: 48 WK), Route [Inhibitor]: ORAL, Species: RAT, Strain/Sex: SPRAGUE-DAWLEY/FEMALE, Target Tissue: Type of Lesion: MAMMARY GLAND: ADENOCARCINOMA, Dose [Carcinogen]: 5 MG ONCE AT 50 D OF AGE, Promoter: NONE USED): 40%, 33%, 18%, not significant
tumour outcome (control, treated, inhibition, significance) (Dose [Inhibitor]: 0, 0.1 UMOL 2/WK FOR 18 WK APPLIED 10-15 MIN PRIOR TO EACH PROMOTER DOSE (STUDY DURATION: 20 WK), Route [Inhibitor]: DERMAL, Species: MOUSE, Strain/Sex: CD-1/FEMALE, Target Tissue: Type of Lesion: SKIN: TUMOR, Dose [Carcinogen]: 200 NMOL ONCE, Promoter: 12-O-TETRADECANOYL-13-ACETATE, 16561-29-8): 95%, 80%, 16%, not significant
tumour outcome (control, treated, inhibition, significance) (Dose [Inhibitor]: 0, 0.3 UMOL 2/WK FOR 18 WK APPLIED 10-15 MIN PRIOR TO EACH PROMOTER DOSE (STUDY DURATION: 20 WK), Route [Inhibitor]: DERMAL, Species: MOUSE, Strain/Sex: CD-1/FEMALE, Target Tissue: Type of Lesion: SKIN: TUMOR, Dose [Carcinogen]: 200 NMOL ONCE, Promoter: 12-O-TETRADECANOYL-13-ACETATE, 16561-29-8): 100%, 95%, 5%, not significant
tumour outcome (control, treated, inhibition, significance) (Dose [Inhibitor]: 0, 20 UG/ML IN DRINKING WATER 24 HR/D 3 D/WK FOR 26 WK BEGINNING AT 45 D OF AGE (STUDY DURATION: 26 WK), Route [Inhibitor]: ORAL, Species: RAT, Strain/Sex: SD/FEMALE, Target Tissue: Type of Lesion: MAMMARY GLAND: TUMOR, Dose [Carcinogen]: 10 UG/ANIMAL IN CORN OIL INTRAGASTRICALLY ON 45, 50, 55 D OF AGE): 100%, 37%, 63%, p<0.001
tumour outcome (control, treated, inhibition, significance) (Dose [Inhibitor]: 0.004% DIET FOR 22 WK STARTING 3 D AFTER CARCINOGEN ADMINISTRATION (STUDY DURATION: 22 WK), Route [Inhibitor]: ORAL, Species: RAT, Strain/Sex: SPRAGUE-DAWLEY/FEMALE, Target Tissue: Type of Lesion: MAMMARY GLANDS: ADENOCARCINOMA, Dose [Carcinogen]: 5 MG ONCE, Promoter: NONE USED): 44%, 41%, 7%, not significant and 59%, 38%, 36%, not significant
tumour outcome (control, treated, inhibition, significance) (Dose [Inhibitor]: 28 NMOL IN 0.2 ML ACETONE APPLIED 2/WK FOR 16 WK 5 HR BEFORE EACH PROMOTER APPLICATION BEGINNING 2 WK POST CARCINOGEN TR, Route [Inhibitor]: DERMAL, Species: MOUSE, Strain/Sex: CD-1/FEMALE, Target Tissue: Type of Lesion: SKIN: PAPILLOMA, Dose [Carcinogen]: 0.2 UMOL IN 0.2 ML ACETONE ONCE, Promoter: 12-O-TETRADECANOYLPHORBOL-13-ACETATE, 16561-29-8): 100%, 97%, 3%, not significant
tumour outcome (control, treated, inhibition, significance) (Dose [Inhibitor]: 280 NMOL IN 0.2 ML ACETONE APPLIED 2/WK FOR 16 WK 5 HR BEFORE EACH PROMOTER APPLICATION BEGINNING 2 WK POST CARCINOGEN D, Route [Inhibitor]: DERMAL, Species: MOUSE, Strain/Sex: CD-1/FEMALE, Target Tissue: Type of Lesion: SKIN: PAPILLOMA, Dose [Carcinogen]: 0.2 UMOL IN 0.2 ML ACETONE ONCE, Promoter: 12-O-TETRADECANOYLPHORBOL-13-ACETATE, 16561-29-8): 100%, 88%, 12%, not significant
tumour outcome (control, treated, inhibition, significance) (Dose [Inhibitor]: 280 NMOL IN 0.2 ML ACETONE APPLIED 2/WK FOR 20 WK 2 HR BEFORE EACH PROMOTER APPLICATION BEGINNING 2 WK POST CARCINOGEN D, Route [Inhibitor]: DERMAL, Species: MOUSE, Strain/Sex: CD-1/FEMALE, Target Tissue: Type of Lesion: SKIN: PAPILLOMA, Dose [Carcinogen]: 0.2 UMOL IN 0.2 ML ACETONE ONCE, Promoter: 12-O-TETRADECANOYLPHORBOL-13-ACETATE, 16561-29-8): 90%, 84%, 7%, not significant
outcome (Carcinogen: ACETOXYMETHYL(METHYLNITROSAMINE), 56856-83-8, Dose [Inhibitor]: 0, 0.001% IN DRINKING WATER FOR 10 WK ADMINISTERED CONCURRENTLY WITH CARCINOGEN TREATMENT (STUDY DURATION: 31 WK), Route [Inhibitor]: ORAL, Species: RAT, Strain/Sex: SPRAGUE-DAWLEY/MALE, Target Tissue: Type of Lesion: LARGE BOWEL: TUMORS, Dose [Carcinogen]: 2 MG/KG BW 1/WK FOR 10 WK, Promoter: NONE USED): 28/29 (97%), 30/30 (100%), -3%, not significant at 21 wk; 20/20 (100%), 17/17 (1
outcome (Carcinogen: ACETOXYMETHYL(METHYLNITROSAMINE), 56856-83-8, Dose [Inhibitor]: 0, 0.001% IN DRINKING WATER FOR 10 WK BEGINNING POST CARCINOGEN TREATMENT (STUDY DURATION: 31 WK), Route [Inhibitor]: ORAL, Species: RAT, Strain/Sex: SPRAGUE-DAWLEY/MALE, Target Tissue: Type of Lesion: LARGE BOWEL: TUMORS, Dose [Carcinogen]: 2 MG/KG BW 1/WK FOR 10 WK, Promoter: NONE USED): 28/29 (97%), 29/29 (100%), -3%, not significant at 21 wk; 20/20 (100%), 18/18 (1
outcome (Carcinogen: ACETOXYMETHYL(METHYLNITROSAMINE), 56856-83-8, Dose [Inhibitor]: 0, 0.001% IN DRINKING WATER FOR 20 WK ADMINISTERED CONCURRENTLY WITH CARCINOGEN TREATMENT AND CONTINUED FOR 10 WK POST C, Route [Inhibitor]: ORAL, Species: RAT, Strain/Sex: SPRAGUE-DAWLEY/MALE, Target Tissue: Type of Lesion: LARGE BOWEL: TUMORS, Dose [Carcinogen]: 2 MG/KG BW 1/WK FOR 10 WK, Promoter: NONE USED): 28/29 (97%), 27/30 (90%), 7%, not significant at 21 wk; 20/20 (100%), 20/20 (100
